Laboratory results reported in US20140308357A1, “MELATONIN-BASED SOLUTIONS AND POWDERS FOR THEIR PREPARATION” (Eratech S.R.L., priority 2011, published 2014).
Converted amounts (≈) assume the structure as drawn.

Columns and labels:
[1] = Osmolality and pH of solutions for administration in Water/PEG 400; type: physicochemical
[2] = Solubility of the powder for reconstitution (saturated solution, filtered, HPLC); type: physicochemical; settings: thermodynamic from solid
Protocol: Following the preparation of a saturate solution of the powders obtained, the same solution was filtered with a […] membrane and the filtered solution obtained was analysed by HPLC according to the method described previously.

[3] = Dissolution speed of the powder for reconstitution in water/PEG-400 (80/20); type: physicochemical; settings: 25° C.
Protocol: The entire test was conducted in temperature conditions of 25° C.
After 1 minute of manual stirring the two solutions were left to settle for 1 minute.
After 1 minute of sedimentation, the supernatant solution was sampled by taking 1 ml of it and analysing it according to the HPLC method described previously.

[4] = cited from earlier work
[5] = Water/PEG 400 ratio 70/30, melatonin 18 mg/ml
[6] = Water/PEG 400 ratio 75/25, melatonin 14 mg/ml
[7] = Water/PEG 400 ratio 80/20, melatonin 10 mg/ml
[8] = Water/PEG 400 ratio 85/15, melatonin 7 mg/ml
[9] = Water/PEG 400 ratio 90/10, melatonin 5 mg/ml

Osmolality [1, 5]: 1310 mOsm/Kg | pH [1, 5]: 5.2 | Osmolality [1, 6]: 1014 mOsm/Kg | pH [1, 6]: 5.2 | Osmolality [1, 7]: 754 mOsm/Kg | pH [1, 7]: 5.2 | Osmolality [1, 8]: 530 mOsm/Kg | pH [1, 8]: 5.2 | Osmolality [1, 9]: 335 mOsm/Kg | pH [1, 9]: 5.2 | solubility ([2]; purified water, water, Water (Table 3a)): 1.8 mg/mL (≈ 7.75 mM) | solubility ([2]; purified water, water, Water (Table 3b)): 1.7 mg/mL (≈ 7.32 mM) | solubility ([2]; water/PEG-200 (75/25), aqueous with cosolvent or surfactant or cyclodextrin, Water-PEG 75/25, PEG 200): 10.5 mg/mL (≈ 45.2 mM) | solubility ([2]; water/PEG-350 (75/25), aqueous with cosolvent or surfactant or cyclodextrin, Water-PEG 75/25, PEG 350): 16.9 mg/mL (≈ 72.8 mM) | solubility ([2]; water/PEG-400 (75/25), aqueous with cosolvent or surfactant or cyclodextrin, Water-PEG 75/25, PEG 400): 14.5 mg/mL (≈ 62.4 mM) | solubility ([2]; water/PEG-400 (80/20), aqueous with cosolvent or surfactant or cyclodextrin, Water-PEG-400 ratio 80-20): 11.1 mg/mL | solubility ([2]; water/PEG-400 (90/10), aqueous with cosolvent or surfactant or cyclodextrin, Water-PEG-400 ratio 90-10): 5 mg/mL | solubility ([2]; water/ethanol (70/30), aqueous with cosolvent or surfactant or cyclodextrin, Water-Ethanol ratio 70-30): 19.7 mg/mL | solubility ([2]; water/ethanol (75/25), aqueous with cosolvent or surfactant or cyclodextrin, Water-Ethanol ratio 75-25): 14.2 mg/mL | solubility ([2]; water/ethanol (80/20), aqueous with cosolvent or surfactant or cyclodextrin, Water-Ethanol ratio 80-20): 8.2 mg/mL | solubility ([2]; water/ethanol (90/10), aqueous with cosolvent or surfactant or cyclodextrin, Water-Ethanol ratio 90-10): 3.7 mg/mL | Visual inspection of the preparation ([3]; 30 mg melatonin in 3 ml water/PEG-400 (80/20), 1 minute manual stirring, after 1 minute settling): presence of undissolved particulate | Concentration of melatonin in the supernatant solution ([3]; 30 mg melatonin in 3 ml water/PEG-400 (80/20), 1 minute stirring and 1 minute sedimentation): 7100 µg/mL | Concentration of melatonin in solution ([3]; water/PEG-400 (80/20), after 10 minutes of stirring): 7900 µg/mL
Structure (SMILES): COc1ccc2[nH]cc(CCNC(C)=O)c2c1 [Melatonin raw material, Melatonin]
Concentration of melatonin in plasma ([4]; endogenous, circulates bound to albumin): 0.01 to 0.3 ng/mL | Bioavailability ([4]; in vivo): approximately 15% | Clearance following first passage through the liver ([4]; in vivo): 90% | Half-life ([4]; in vivo): 30 to 60 min
